Converted amounts (≈) assume the structure as drawn. “And” between values parts separate entries of the source, which are not always exact repeats. Identical values can stand only once.
Legend:
Tbb-5FURes = test: microbe, parasite or virus in culture; type: cell-based, Trypanosoma brucei brucei; conditions: Trypanosoma brucei, read-out: T. Brucei, EC50, Tbb-5FURes
T. brucei B48 = test: microbe, parasite or virus in culture; type: cell-based, Trypanosoma brucei brucei; conditions: for EC50: Trypanosoma brucei, read-out: T. Brucei, EC50, B48
[1] = tested on: M. tuberculosis ATCC 25,177 (H37Ra); test: microbe, parasite or virus in culture; type: cell-based, Mycobacterium tuberculosis; conditions: for MIC: Mycobacterium tuberculosis, read-out: M. Tuberculosis 25,177 MIC
T. brucei 2T1 PYR6-5 −/− = test: microbe, parasite or virus in culture; type: cell-based, Trypanosoma brucei brucei; conditions: Trypanosoma brucei, read-out: T. Brucei, EC50, 2T1 PYR6-5 −/−
[2] = tested on: L. mexicana 5FURes (Lmex5FURes); test: microbe, parasite or virus in culture; conditions: Leishmania mexicana, read-out: L. Mexicana 5FUR, EC50
Protocol: Promastigotes of Leishmania mexicana strain MNY/BZ/62/M379 was cultured in a minimal essential medium, HO-MEMO-MEME, supplemented with 10% FBS and 1% of a penicillin/streptomycin solution (Gibco) as described previously [39] at 25 °C. The L. mexicana 5FURes strain was the same strain but adapted in vitro to high levels of 5FU exactly as described for T. brucei [12].
The resazurin assay for L. mexicana promastigotes was performed exactly as for T. b. brucei, except that incubation times of 72 and 48 h were used before and after the addition of resazurin, respectively, due to the slower metabolism of the dye by Leishmania promastigotes [42].

U-937 cells = test: U-937 cytotoxicity (XTT); type: cell-based; conditions: 6 days incubation
Protocol: The U-937 cells used in the cytotoxicity evaluation were obtained from the AIDS Research and Reference Program. The cells were cultured as indicated by the supplier in RPMI-1640 supplemented with 10% heat inactivated FBS, 1% penicillin/streptomycin solution, and 1% L-glutamine.
U-937 cells plated at 2.5 × 10^3 cells/well in a volume of 100 µL were incubated with serially diluted test compounds in a volume of 100 µL for 6 days at 37 °C/5% CO2. Following the incubation, the cells were stained by adding 50 μL tetrazolium dye XTT (Sigma) solution at 5 mg/mL to determine cellular viability and read at 460/650 nm on a spectrophotometer. Toxicity values were calculated using linear regression analysis.

[3] = tested on: Staphylococcus aureus NRS384; test: microbe, parasite or virus in culture; type: cell-based; conditions: NRS384, read-out: extrapolated IC50, growth of S. aureus NRS384
[4] = tested on: T. b. brucei strain Lister 427 (s427-WT); test: resazurin EC50 assay, T. b. brucei wild-type bloodstream forms; type: cell-based, Trypanosoma brucei brucei; conditions: 48 h + 24 h resazurin, average and SEM, at least three determinations, NE = no effect on cell viability at 100 µM; for EC50: Trypanosoma brucei, 72 h
T. vaginalis strain G3 = test: resorufin-based EC50 assay, T. vaginalis; conditions: Trichomonas vaginalis, read-out: Trichomonas Vaginalis, EC50
Protocol: The standard metronidazole-susceptible T. vaginalis strain G3was originally obtained from Jeremy Mottram (University of York, UK) and cultured in a modification of Diamond′s medium supplemented with 10% horse serum with a composition as described [40] at 37 °C under anaerobic conditions. Cultures were passaged daily.
Drugs were tested on T. vaginalis using a resorufin-based assay that we developed [40, 43]. The assay is based on the principle that live T. vaginalis trophozoites are, almost uniquely, able to reduce fluorescent, pink resorufin to non-fluorescent, colorless dihydro-resorufin. This conversion was measured as a dose-dependent increase in fluorescence (with dead cells unable to metabolize the fluorophore; λexc 544 nm, λem 599 nm), resulting in a sigmoid curve with variable slope that yielded EC50 values (Prism 6.0). Plates contained 11 doubling dilutions (1 row) and no-drug control for each compound starting at 100 µM under anaerobic conditions as described [40, 43]. Fluorescence was determined in a PheraStar plate reader (BMG Labtech).

M. tuberculosis H37Rv = test: microbe, parasite or virus in culture; type: cell-based; conditions: Mycobacterium tuberculosis, control drugs at critical concentrations
M. tuberculosis MS-115 = test: microbe, parasite or virus in culture; type: cell-based; conditions: Mycobacterium tuberculosis, MS115, read-out: M. Tuberculosis MS-115 MIC
M. smegmatis 700,084 = type: cell-based, Mycobacterium smegmatis; conditions: tested up to 250 µM

SMILES	EC50 (Tbb-5FURes) [µM]	EC50 (T. brucei B48) [µM]	MIC [1]	EC50 (T. brucei 2T1 PYR6-5 −/−) [µM]	EC50 [2] [µM]	U-937 Cells TC50 (U-937 cells) [µM]	EC50 [4] [µM]	EC50 (T. vaginalis strain G3) [µM]	MIC (M. tuberculosis H37Rv) [µg/mL]	other results
CCOC(=O)C#Cc1cn([C@H]2C=C[C@@H](O)C2)c(=O)n([C@H]2C=C[C@@H](O)C2)c1=O [Compound 11, 1-[4′-Hydroxy-2′-cyclopenten-1′-yl]-3-(4′′-hydroxy-2′′-cyclopent-en-1′′-yl)-5-(ethyloxycarbonylpropynyl)uracil]	> 100	> 100	1000 µM and 372 µg/mL	> 100	> 100	21.6	> 100	53.8 ± 0.74		IC50 [3]: ~100 µM; T. Brucei, EC50, S427-WT [4]: little or no activity at the highest concentration tested
CCCCCCCCCc1ccc(OCCOCCOCCOCCOCCOCCOCCOCCOCCO)cc1 [Compound N9, Nonoxynol-9, reference compound]										U-937 Cells TC50 (U-937 cells; positive control): 6.5 µg/mL; U-937 Cells TC50 (U-937 cells; positive control, listed as Nonoxynol-9): toxic at the expected concentration
NC[C@H]1O[C@H](O[C@H]2[C@H](O)[C@@H](O[C@H]3O[C@H](CO)[C@@H](O)[C@H](N)[C@H]3O)[C@H](N)C[C@@H]2N)[C@H](O)[C@@H](O)[C@@H]1O [Kanamycin, reference compound]										M. Tuberculosis 25,177 MIC [1]: 6.5 µM and 3.13 µg/mL
Cc1ncc([N+](=O)[O-])n1CCO [Metronidazole, reference compound]								0.53 ± 0.1		
N=C(N)c1ccc(OCCCCCOc2ccc(C(=N)N)cc2)cc1 [Pentamidine, reference compound]	0.0034 ± 0.0004	0.71 ± 0.03		0.0031 ± 0.0004	1.63 ± 0.18		0.0032 ± 0.0004			fold resistance, B48 versus wild-type (T. brucei B48; higher EC50 against multi-drug resistant strain B48): 219 fold
C[C@H]1COc2c(N3CCN(C)CC3)c(F)cc3c(=O)c(C(=O)O)cn1c23 [Levofloxacin, reference compound]									1.5 (≈ 4.15 µM)	MIC (M. tuberculosis MS-115): 1.5 µg/mL (≈ 4.15 µM)
CCCCCc1ccc(C#Cc2cn([C@H]3C=C[C@@H](O)C3)c(=O)n([C@H]3C=C[C@@H](O)C3)c2=O)cc1 [Compound 8]	12 ± 1.2	11 ± 0.6	31 µM and 13.9 µg/mL	15.4 ± 0.7	27.5 ± 2.3	17.3	~8	36.9 ± 0.18	> 50	concentration completely inhibiting growth of M. smegmatis (M. smegmatis 700,084): 250 µM
CCCCCCCCCCC#Cc1cn([C@H]2C=C[C@@H](O)C2)c(=O)n([C@H]2C=C[C@@H](O)C2)c1=O [Compound 2, 1-[4′-Hydroxy-2′-cyclopenten-1′-yl]-3-(4′′-hydroxy-2′′-cyclopent-en-1′′-yl)-5-dodecynyluracil]	5.2 ± 0.6	4 ± 0.4	31 µM and 13.6 µg/mL	5.5 ± 0.5	51.1 ± 0.6	22.1	3.1	48.9 ± 0.05	> 50	
CC(C)(C)c1ccc(C#Cc2cn([C@H]3C=C[C@@H](O)C3)c(=O)n([C@H]3C=C[C@@H](O)C3)c2=O)cc1 [Compound 7, 1-[4′-Hydroxy-2′-cyclopenten-1′-yl]-3-(4′′-hydroxy-2′′-cyclopent-en-1′′-yl)-5-(4-tertbutylphenynylethenyl)uracil]	12.6 ± 1.4	10.8 ± 0.6	62.5 µM and 27 µg/mL	14.7 ± 0.4	45.3 ± 2.2	22.5	~8	52.8 ± 0.007	> 50	concentration completely inhibiting growth of M. smegmatis (M. smegmatis 700,084): 250 µM

— PMC6804079, “Investigation of 5’-Norcarbocyclic Nucleoside Analogues as Antiprotozoal and Antibacterial Agents” (Molecules, 2019)
